Where a name gives a salt, the structure may show the parent alone.
Experiments:
Human KDR = target: T1, Human KDR (Homo sapiens, UniProt P35968); assay: Human KDR kinase assay (33P radiometric / HTRF KinEase); format: biochemical; conditions: protocols of Examples B-1 and/or B-2
T1 construct: Human KDR (residues K790-V1356, 55 nM); purchased Eurofins Pharma Discovery Services UK Limited (KinaseProfiler, B-1) and/or CarnaBio (B-2)
Protocol: Kinase activity and compound inhibition were investigated using the ^33P-Phosphoryl transfer radiometric kinase assay, performed using the KinaseProfiler™ service of Eurofins Pharma Discovery Services UK Limited. Dose-response experiments were performed using nine compound concentrations in a 96-well microtiter plate. For each assay, all compounds were prepared to a 50× final assay concentration (50 μM) in 100% DMSO, then diluted in a half-log series, with the final top concentration at 1 μM. This working stock of the compound was added to the assay well as the first component in the reaction, followed by the remaining components as detailed in the following assay protocols below. The positive control wells (100% kinase activity) contain all components of the reaction including 2% DMSO (control for solvent effects), except the compound of interest. Blank wells contain all components of the reaction, with the reference inhibitor, staurosporine. This reference compound was used to abolish kinase activity and generated the 0% kinase activity base-line. IC50 values were calculated by nonlinear regression analysis using the sigmoidal dose-response (variable slope) curve fit on XLFit version 5.3 (ID Business Solutions).
Kinase activity and compound inhibition were also investigated using the HTRF® KinEase assay (Cisbio Cat #62TKOPEB) per manufacturer's instructions. In short, compounds were delivered in 300 nL volumes at 10 different concentrations in DMSO (3% final) to empty 384-well assay plates (Corning cat #3824). A mixture of enzyme, 1 μM biotinylated peptide substrate, and buffer in 10 μL volume was added. The assay was started upon the addition of ATP (at Km). The 10 μL reaction was incubated at room temperature. The reaction was stopped upon the addition of detection buffer containing streptavidin-XL665 (5 μL) and TK antibody-Eu3+(5 μL). After a 60 min incubation at room temperature, the fluorescence at 665 nm and 620 nm was read on an Envision microplate reader (Perkin Elmer).
Kinase activity normalized to DMSO (100% activity) and reference compound at 1 μM and (0% activity) was calculated using the fluorescence ratio […]. IC50 values were calculated by nonlinear regression analysis using a 4-parameter logistic curve fit in ActivityBase XE (IDBS).
Example B-1: Human KDR (residues K790-V1356, 55 nM) was incubated with 8 mM MOPS pH 7.0, 0.2 mM EDTA, 0.33 mg/mL myelin basic protein, 10 mM magnesium acetate, and 10 μM [γ-^33P-ATP]. The reaction was initiated by the addition of the Mg/ATP mix. After incubation for 40 minutes at room temperature, the reaction was stopped by the addition of phosphoric acid to a concentration of 0.5%. A reaction aliquot of 10 μL was then spotted onto a P30 filtermat and washed four times for 4 minutes in 0.425% phosphoric acid and once in methanol prior to drying and scintillation counting. Incorporated ^33P was measured using the Wallac Microbeta scintillation counter (Perkin Elmer).
Example B-2: Human KDR (residues 790-1356; CarnaBio, 0.1 ng/well) was also incubated with enzymatic buffer (Cisbio) supplemented with 5 mM MgCl2, 1 mM MnCl2, and 1 mM DTT. The mixture was added to the pre-plated compounds. The reaction was initiated upon addition of ATP at Km (4.0 μM). The reaction was incubated at room temperature for 40 min and stopped upon the addition of SA-XL665 and TK-antibody both diluted in EDTA-containing kinase detection buffer (Cisbio). The kinase activity was calculated as stated above and the IC50 values were reported.

Human Mer = target: T2, Human Mer (Homo sapiens, UniProt Q12866); assay: Human Mer kinase assay (33P radiometric / HTRF KinEase); format: biochemical; conditions: protocols of Examples C-1 and/or C-2
T2 construct: Human Mer (residues R557-E882 with H628Q and R794A, 0.7 nM); purchased Eurofins Pharma Discovery Services UK Limited (KinaseProfiler service)
T2 sequence (Q12866 557-882 limits assumed): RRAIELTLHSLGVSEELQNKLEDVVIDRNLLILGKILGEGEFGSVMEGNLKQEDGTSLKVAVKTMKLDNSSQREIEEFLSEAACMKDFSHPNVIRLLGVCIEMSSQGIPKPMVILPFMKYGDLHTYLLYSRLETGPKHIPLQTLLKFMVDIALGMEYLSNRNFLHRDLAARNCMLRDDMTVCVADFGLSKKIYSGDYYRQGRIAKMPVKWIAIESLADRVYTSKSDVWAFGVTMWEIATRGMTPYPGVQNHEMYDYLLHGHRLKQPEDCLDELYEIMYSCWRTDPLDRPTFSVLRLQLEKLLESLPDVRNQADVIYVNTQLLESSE
How it was run: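 Two formats yield IC50 values. HTRF KinEase used MER residues 528-999 with ATP at Km (40 μM), 1 μM biotin-peptide, 60 min RT, […], 10 concentrations. 33P filter assay used 0.7 nM Mer R557-E882 (H628Q/R794A), 10 μM ATP, 250 μM peptide, 40 min RT, top 1 μM.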

T1 sequence (P35968 790-1356): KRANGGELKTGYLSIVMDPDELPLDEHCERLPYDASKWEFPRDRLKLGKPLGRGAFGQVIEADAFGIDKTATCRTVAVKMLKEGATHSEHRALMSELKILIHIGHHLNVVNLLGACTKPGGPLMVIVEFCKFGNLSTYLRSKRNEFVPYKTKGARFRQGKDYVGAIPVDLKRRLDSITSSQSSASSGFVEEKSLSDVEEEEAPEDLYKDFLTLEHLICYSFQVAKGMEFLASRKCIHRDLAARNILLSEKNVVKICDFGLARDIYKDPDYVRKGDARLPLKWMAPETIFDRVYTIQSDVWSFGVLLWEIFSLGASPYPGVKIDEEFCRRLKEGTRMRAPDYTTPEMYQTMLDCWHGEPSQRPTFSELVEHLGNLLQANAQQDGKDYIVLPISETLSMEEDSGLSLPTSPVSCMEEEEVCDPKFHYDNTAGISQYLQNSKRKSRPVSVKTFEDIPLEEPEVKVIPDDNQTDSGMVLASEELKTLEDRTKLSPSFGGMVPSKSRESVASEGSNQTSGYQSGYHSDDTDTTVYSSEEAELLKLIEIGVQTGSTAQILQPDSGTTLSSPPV

IC50 (Human KDR) [nM]	IC50 (Human Mer) [nM]	Compound
≤ 100	≤ 100	COc1cc2nccc(Oc3ccc(NC(=O)c4cn(C)c(C)c(C5=CCCC5)c4=O)cc3F)c2nc1OC [Compound 1, 5-(Cyclopenten-1-yl)-N-[4-[(6,7-dimethoxy-1,5-naphthyridin-4-yl)oxy]-3-fluorophenyl]-1,6-dimethyl-4-oxopyridine-3-carboxamide]
≤ 100	≤ 100	COc1cc2nccc(Oc3ccc(NC(=O)c4c(C)nc(C)c(C5=CCCC5)c4O)cc3F)c2nc1OC [Compound 1-2, 5-(Cyclopenten-1-yl)-N-[4-[(6,7-dimethoxy-1,5-naphthyridin-4-yl)oxy]-3-fluorophenyl]-4-hydroxy-2,6-dimethylpyridine-3-carboxamide hydrochloride]
≤ 100	≤ 100	COc1cc2nccc(Oc3ccc(NC(=O)c4cnc(C)c(C5=CCOCC5)c4O)cc3F)c2nc1OC [Compound 1-3, 5-(3,6-Dihydro-2H-pyran-4-yl)-N-[4-[(6,7-dimethoxy-1,5-naphthyridin-4-yl)oxy]-3-fluorophenyl]-4-hydroxy-6-methylpyridine-3-carboxamide]
≤ 100	≤ 100	COc1cnc2c(Oc3ccc(NC(=O)c4cnc(C)c(C5=CCOCC5)c4O)cc3F)ccnc2c1 [Compound 1-4, 5-(3,6-Dihydro-2H-pyran-4-yl)-N-[3-fluoro-4-[(7-methoxy-1,5-naphthyridin-4-yl)oxy]phenyl]-4-hydroxy-6-methylpyridine-3-carboxamide]
≤ 100	≤ 100	COc1ccc2nccc(Oc3ccc(NC(=O)c4cnc(C)c(C5=CCOCC5)c4O)cc3F)c2n1 [Compound 1-5, 5-(3,6-Dihydro-2H-pyran-4-yl)-N-[3-fluoro-4-[(6-methoxy-1,5-naphthyridin-4-yl)oxy]phenyl]-4-hydroxy-6-methylpyridine-3-carboxamide]
100 to 300	≤ 100	COc1ccc2nccc(Oc3ccc(NC(=O)c4cnc(C)c(C5=CCCCC5)c4O)cc3F)c2n1 [Compound 1-6, 5-(Cyclohexen-1-yl)-N-[3-fluoro-4-[(6-methoxy-1,5-naphthyridin-4-yl)oxy]phenyl]-4-hydroxy-6-methylpyridine-3-carboxamide]
≤ 100	≤ 100	COc1ccc2nccc(Oc3ccc(NC(=O)c4cnc(C)c(C5=CCCC5)c4O)cc3F)c2n1 [Compound 1-7, 5-(Cyclopenten-1-yl)-N-[3-fluoro-4-[(6-methoxy-1,5-naphthyridin-4-yl)oxy]phenyl]-4-hydroxy-6-methylpyridine-3-carboxamide]
≤ 100	≤ 100	COc1cnc2c(Oc3ccc(NC(=O)c4cnc(C)c(C5=CCCC5)c4O)cc3F)ccnc2c1 [Compound 1-9, 5-(Cyclopenten-1-yl)-N-[3-fluoro-4-[(7-methoxy-1,5-naphthyridin-4-yl)oxy]phenyl]-4-hydroxy-6-methylpyridine-3-carboxamide]
≤ 100	≤ 100	COc1cc2nccc(Oc3ccc(NC(=O)c4cn(C)c(C)c(C5CCCC5)c4=O)cc3F)c2nc1OC [Compound 2, 5-Cyclopentyl-N-[4-[(6,7-dimethoxy-1,5-naphthyridin-4-yl)oxy]-3-fluorophenyl]-1,6-dimethyl-4-oxopyridine-3-carboxamide]
≤ 100	≤ 100	COc1cc2nccc(Oc3ccc(NC(=O)c4c(C)nc(C)c(C5=CCCCC5)c4O)cc3F)c2nc1OC [Compound 2-3, 5-(Cyclohexen-1-yl)-N-[4-[(6,7-dimethoxy-1,5-naphthyridin-4-yl)oxy]-3-fluorophenyl]-4-hydroxy-2,6-dimethylpyridine-3-carboxamide]
≤ 100	≤ 100	C=C(C)c1c(C)nc(C)c(C(=O)Nc2cc(F)c(Oc3ccnc4cc(OC)c(OC)nc34)cc2F)c1O [Compound 6, N-[4-[(6,7-Dimethoxy-1,5-naphthyridin-4-yl)oxy]-2,5-difluorophenyl]-4-hydroxy-2,6-dimethyl-5-prop-1-en-2-ylpyridine-3-carboxamide]
≤ 100	≤ 100	COc1cnc2c(Oc3ccc(NC(=O)c4cnc(C)c(C5=CCOCC5)c4O)cc3)ccnc2c1 [Compound 7, 5-(3,6-Dihydro-2H-pyran-4-yl)-4-hydroxy-N-[4-[(7-methoxy-1,5-naphthyridin-4-yl)oxy]phenyl]-6-methylpyridine-3-carboxamide]
≤ 100	≤ 100	COc1cc2nccc(Oc3ccc(NC(=O)c4cn(CCF)c(C)c(C5=CCCCC5)c4=O)cc3F)c2nc1OC [Compound 8, 5-(Cyclohexen-1-yl)-N-[4-[(6,7-dimethoxy-1,5-naphthyridin-4-yl)oxy]-3-fluorophenyl]-1-(2-fluoroethyl)-6-methyl-4-oxopyridine-3-carboxamide]
≤ 100	≤ 100	COc1cc2nccc(Oc3ccc(NC(=O)c4c(C)nc(C)c(C(C)C)c4O)cc3)c2nc1OC [Compound 9, N-[4-[(6,7-Dimethoxy-1,5-naphthyridin-4-yl)oxy]phenyl]-4-hydroxy-2,6-dimethyl-5-propan-2-ylpyridine-3-carboxamide]
≤ 100	≤ 100	COc1cc2nccc(Oc3cc(F)c(NC(=O)c4c(C)nc(C)c(C(C)C)c4O)cc3F)c2nc1OC [Compound 10, N-[4-[(6,7-Dimethoxy-1,5-naphthyridin-4-yl)oxy]-2,5-difluorophenyl]-4-hydroxy-2,6-dimethyl-5-propan-2-ylpyridine-3-carboxamide]
≤ 100	≤ 100	COc1cc2nccc(Oc3ccc(NC(=O)c4cn(CCF)c(C)c(C5=CCCC5)c4=O)cc3F)c2nc1OC [Compound 11, 5-(Cyclopenten-1-yl)-N-[4-[(6,7-dimethoxy-1,5-naphthyridin-4-yl)oxy]-3-fluorophenyl]-1-(2-fluoroethyl)-6-methyl-4-oxopyridine-3-carboxamide]
> 300	≤ 100	COc1cnc2c(Oc3ccc(NC(=O)c4cn(C)c(C)c(C5=CCOCC5)c4=O)cc3F)ccnc2c1 [Compound 12, 5-(3,6-Dihydro-2H-pyran-4-yl)-N-[3-fluoro-4-[(7-methoxy-1,5-naphthyridin-4-yl)oxy]phenyl]-1,6-dimethyl-4-oxopyridine-3-carboxamide]
≤ 100	≤ 100	COc1cc2nccc(Oc3ccc(NC(=O)c4cn(CCF)c(C)c(C5CCCC5)c4=O)cc3F)c2nc1OC [Compound 13, 5-Cyclopentyl-N-[4-[(6,7-dimethoxy-1,5-naphthyridin-4-yl)oxy]-3-fluorophenyl]-1-(2-fluoroethyl)-6-methyl-4-oxopyridine-3-carboxamide]
≤ 100	≤ 100	COc1cc2nccc(Oc3ccc(NC(=O)c4c(C)cc(C)n(C5=CCCC5)c4=O)cc3F)c2nc1OC [Compound 14, 1-(Cyclopenten-1-yl)-N-[4-[(6,7-dimethoxy-1,5-naphthyridin-4-yl)oxy]-3-fluorophenyl]-4,6-dimethyl-2-oxopyridine-3-carboxamide]

— patent US20240158393A1, “PYRIDONE COMPOUNDS AND METHODS OF USE” (Exelixis, Inc., priority 2021, published 2024)
